{"source": "patent US10493077B2", "about": "“Fused imidazo-piperidine JAK inhibitor compound” (THERAVANCE BIOPHARMA R&D IP, LLC, priority 2017, dated 2019)", "key": {"KIT": {"molecular_target": "T1, KIT (Homo sapiens, UniProt P10721)", "T1 construct": "made in house; host or cells: T7 phage in E. coli (BL21-derived) or HEK-293", "T1 sequence (P10721 26-976)": "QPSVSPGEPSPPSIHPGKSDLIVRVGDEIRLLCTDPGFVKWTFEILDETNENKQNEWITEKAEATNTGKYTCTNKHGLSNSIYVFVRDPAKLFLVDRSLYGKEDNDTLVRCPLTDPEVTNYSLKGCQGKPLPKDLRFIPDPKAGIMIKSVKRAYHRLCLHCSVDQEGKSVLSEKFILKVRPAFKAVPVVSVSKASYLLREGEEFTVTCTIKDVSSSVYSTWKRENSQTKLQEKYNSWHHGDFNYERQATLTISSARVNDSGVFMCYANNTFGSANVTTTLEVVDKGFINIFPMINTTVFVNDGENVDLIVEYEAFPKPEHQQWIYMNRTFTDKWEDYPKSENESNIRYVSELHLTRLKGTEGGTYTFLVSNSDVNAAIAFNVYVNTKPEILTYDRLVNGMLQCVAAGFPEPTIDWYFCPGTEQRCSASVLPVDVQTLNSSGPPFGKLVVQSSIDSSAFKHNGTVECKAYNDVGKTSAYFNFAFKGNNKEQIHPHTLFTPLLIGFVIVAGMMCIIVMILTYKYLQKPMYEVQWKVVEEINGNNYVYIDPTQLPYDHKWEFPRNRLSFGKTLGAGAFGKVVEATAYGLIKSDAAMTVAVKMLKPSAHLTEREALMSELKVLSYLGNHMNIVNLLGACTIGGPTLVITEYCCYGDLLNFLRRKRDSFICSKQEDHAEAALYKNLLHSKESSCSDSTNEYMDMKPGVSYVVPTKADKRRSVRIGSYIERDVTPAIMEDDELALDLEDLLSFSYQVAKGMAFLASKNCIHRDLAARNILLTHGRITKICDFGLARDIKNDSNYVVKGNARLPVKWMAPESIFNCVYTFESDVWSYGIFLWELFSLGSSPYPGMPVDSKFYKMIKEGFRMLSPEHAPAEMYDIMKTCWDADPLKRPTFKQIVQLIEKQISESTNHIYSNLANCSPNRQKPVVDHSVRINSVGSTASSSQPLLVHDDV", "assay": "Kinome screen, KIT", "assay_type": "binding", "conditions": "screened at 1 μM", "description": "(§1) Kinase-tagged T7 phage strains were grown in parallel in 24-well blocks in an E. coli host derived from the BL21 strain. E. coli were grown to log-phase and infected with T7 phage from a frozen stock (multiplicity of infection=0.4) and incubated with shaking at 32° C. until lysis (90-150 minutes). The lysates were centrifuged (6,000×g) and filtered (0.2 μm) to remove cell debris. The remaining kinases were produced in HEK-293 cells and subsequently tagged with DNA for qPCR detection.\n(§2) Streptavidin-coated magnetic beads were treated with biotinylated small molecule ligands for 30 minutes at room temperature to generate affinity resins for kinase assays. The liganded beads were blocked with excess biotin and washed with blocking buffer (SeaBlock (Pierce), 1% BSA, 0.05% Tween 20, 1 mM DTT) to remove unbound ligand and to reduce non-specific phage binding. […] Test compounds were prepared as 40× stocks in 100% DMSO and directly diluted into the assay. All reactions were performed in polypropylene 384-well plates in a final volume of 0.04 ml. […] The beads were then re-suspended in elution buffer (1×PBS, 0.05% Tween 20, 0.5 μM non-biotinylated affinity ligand) and incubated at room temperature with shaking for 30 minutes. The kinase concentration in the eluates was measured by qPCR."}, "JAK1": {"molecular_target": "T2, JAK1 (Homo sapiens, UniProt P23458)", "T2 construct": "GST; purchased Life Technologies", "T2 sequence (P23458 whole entry)": "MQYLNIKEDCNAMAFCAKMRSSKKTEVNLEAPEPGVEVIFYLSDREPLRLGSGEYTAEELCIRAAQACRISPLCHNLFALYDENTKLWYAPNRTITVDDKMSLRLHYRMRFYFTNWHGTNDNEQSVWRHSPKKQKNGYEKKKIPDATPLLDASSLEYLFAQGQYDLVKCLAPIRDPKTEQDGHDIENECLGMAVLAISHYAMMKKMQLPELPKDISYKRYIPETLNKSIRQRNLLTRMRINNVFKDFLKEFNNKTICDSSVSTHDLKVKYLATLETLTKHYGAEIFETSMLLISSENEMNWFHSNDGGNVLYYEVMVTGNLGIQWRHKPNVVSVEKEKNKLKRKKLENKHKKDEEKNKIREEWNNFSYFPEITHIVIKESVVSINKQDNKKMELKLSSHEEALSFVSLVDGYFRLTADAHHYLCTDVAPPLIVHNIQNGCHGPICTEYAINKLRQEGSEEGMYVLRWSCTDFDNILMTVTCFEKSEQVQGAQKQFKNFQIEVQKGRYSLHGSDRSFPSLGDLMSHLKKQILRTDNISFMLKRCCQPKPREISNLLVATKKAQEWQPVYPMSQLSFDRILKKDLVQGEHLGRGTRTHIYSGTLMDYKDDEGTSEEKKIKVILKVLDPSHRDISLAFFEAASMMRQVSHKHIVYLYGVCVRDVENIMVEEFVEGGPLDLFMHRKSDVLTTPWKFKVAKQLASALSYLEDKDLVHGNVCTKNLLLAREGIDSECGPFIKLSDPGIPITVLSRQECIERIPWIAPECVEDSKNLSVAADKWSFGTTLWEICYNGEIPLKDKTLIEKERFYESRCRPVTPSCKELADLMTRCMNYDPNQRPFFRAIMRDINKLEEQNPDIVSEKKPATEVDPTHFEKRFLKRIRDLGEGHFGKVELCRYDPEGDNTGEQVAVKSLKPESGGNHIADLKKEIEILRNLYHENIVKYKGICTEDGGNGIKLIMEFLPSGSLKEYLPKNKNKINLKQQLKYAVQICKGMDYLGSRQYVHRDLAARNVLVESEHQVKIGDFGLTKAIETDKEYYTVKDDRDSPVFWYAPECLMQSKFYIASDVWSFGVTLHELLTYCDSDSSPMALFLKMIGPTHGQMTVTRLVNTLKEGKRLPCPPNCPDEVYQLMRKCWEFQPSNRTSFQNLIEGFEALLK", "assay": "LanthaScreen JAK biochemical assay, JAK1", "conditions": "read-out: JAK 1 pKi (converted)", "description": "A panel of four LanthaScreen JAK biochemical assays (JAK1, 2, 3 and Tyk2) were carried in a common kinase reaction buffer (50 mM HEPES, pH 7.5, 0.01% Brij-35, 10 mM MgCl2, and 1 mM EGTA). Recombinant GST-tagged JAK enzymes and a GFP-tagged STAT1 peptide substrate were obtained from Life Technologies.\nSerially diluted compound was pre-incubated with each of the four JAK enzymes and the substrate in white 384-well microplates (Corning) at ambient temperature for 1 h. ATP was subsequently added to initiate the kinase reactions in 10 μL total volume, with 1% DMSO. […] The plates were allowed to incubate at ambient temperature for 1 h before being read on the EnVision reader (Perkin Elmer). Emission ratio signals (520 nm/495 nm) were recorded and utilized to calculate the percent inhibition values based on DMSO and background controls.\nFor dose-response analysis, percent inhibition data were plotted vs. compound concentrations, and IC50 values were determined from a 4-parameter robust fit model with the Prism software (GraphPad Software). Results were expressed as pIC50 (negative logarithm of IC50) and subsequently converted to pKi (negative logarithm of dissociation constant, Ki) using the Cheng-Prusoff equation."}, "CDK7": {"molecular_target": "T3, CDK7 (Homo sapiens, UniProt P50613)", "T3 construct": "made in house; host or cells: T7 phage in E. coli (BL21-derived) or HEK-293", "T3 sequence (P50613 whole entry)": "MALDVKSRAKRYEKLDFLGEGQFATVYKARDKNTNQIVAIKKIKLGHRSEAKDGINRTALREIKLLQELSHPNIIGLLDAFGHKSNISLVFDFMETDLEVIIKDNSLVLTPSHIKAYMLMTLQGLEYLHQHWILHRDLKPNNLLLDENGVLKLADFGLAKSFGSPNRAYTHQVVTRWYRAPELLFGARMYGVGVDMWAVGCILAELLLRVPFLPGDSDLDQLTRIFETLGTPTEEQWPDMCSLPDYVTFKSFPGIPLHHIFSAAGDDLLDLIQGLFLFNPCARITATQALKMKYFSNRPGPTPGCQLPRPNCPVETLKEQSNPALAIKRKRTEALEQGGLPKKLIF", "assay": "Kinome screen, CDK7", "assay_type": "binding", "conditions": "screened at 1 μM", "description": "as §1, §2"}, "[1]": {"system": "BEAS-2B human lung epithelial cells", "assay": "CellTiter-Glo cell viability/cytotoxicity assay", "assay_type": "cell-based", "conditions": "BEAS-2B cells, 48 h, concentration at 15% inhibition threshold", "description": "A CellTiter-Glo luminescent cell viability/cytotoxicity assay was carried out in BEAS-2B human lung epithelial cells (ATCC) under the normal growth condition.\nCells were grown at 37° C. in a 5% CO2 humidified incubator in 50% DMEM/50% F-12 medium (Life Technologies) supplemented with 10% FBS (Hyclone), 100 U/mL penicillin, 100 μg/mL streptomycin (Life Technologies), and 2 mM GlutaMAX (Life Technologies). On day 1 of the assay, cells were seeded at a 500 cells/well density in white 384-well tissue culture plates (Corning) with 25 μL medium, and were allowed to adhere overnight in the incubator. On day 2 of the assay, 5 μL of medium containing dose-responses of test compounds was added, and incubated at 37° C. for 48 h. 30 μL of CellTiter-Glo detection solution (Promega) was subsequently added, mixed on an orbital shaker for 5 min, and incubated for additional 10 min before being read on the EnVision reader. Luminescence signals were recorded and percent DMSO control values were calculated.\nFor dose-response analysis, percent DMSO control data were plotted vs. compound concentrations to derive dose-response curves by line connecting each data point. The concentration at which each curve crosses the 15% inhibition threshold is defined as CC15."}, "CSF1R": {"molecular_target": "T4, CSF1R (Homo sapiens, UniProt P07333)", "T4 construct": "made in house; host or cells: T7 phage in E. coli (BL21-derived) or HEK-293", "T4 sequence (P07333 20-972)": "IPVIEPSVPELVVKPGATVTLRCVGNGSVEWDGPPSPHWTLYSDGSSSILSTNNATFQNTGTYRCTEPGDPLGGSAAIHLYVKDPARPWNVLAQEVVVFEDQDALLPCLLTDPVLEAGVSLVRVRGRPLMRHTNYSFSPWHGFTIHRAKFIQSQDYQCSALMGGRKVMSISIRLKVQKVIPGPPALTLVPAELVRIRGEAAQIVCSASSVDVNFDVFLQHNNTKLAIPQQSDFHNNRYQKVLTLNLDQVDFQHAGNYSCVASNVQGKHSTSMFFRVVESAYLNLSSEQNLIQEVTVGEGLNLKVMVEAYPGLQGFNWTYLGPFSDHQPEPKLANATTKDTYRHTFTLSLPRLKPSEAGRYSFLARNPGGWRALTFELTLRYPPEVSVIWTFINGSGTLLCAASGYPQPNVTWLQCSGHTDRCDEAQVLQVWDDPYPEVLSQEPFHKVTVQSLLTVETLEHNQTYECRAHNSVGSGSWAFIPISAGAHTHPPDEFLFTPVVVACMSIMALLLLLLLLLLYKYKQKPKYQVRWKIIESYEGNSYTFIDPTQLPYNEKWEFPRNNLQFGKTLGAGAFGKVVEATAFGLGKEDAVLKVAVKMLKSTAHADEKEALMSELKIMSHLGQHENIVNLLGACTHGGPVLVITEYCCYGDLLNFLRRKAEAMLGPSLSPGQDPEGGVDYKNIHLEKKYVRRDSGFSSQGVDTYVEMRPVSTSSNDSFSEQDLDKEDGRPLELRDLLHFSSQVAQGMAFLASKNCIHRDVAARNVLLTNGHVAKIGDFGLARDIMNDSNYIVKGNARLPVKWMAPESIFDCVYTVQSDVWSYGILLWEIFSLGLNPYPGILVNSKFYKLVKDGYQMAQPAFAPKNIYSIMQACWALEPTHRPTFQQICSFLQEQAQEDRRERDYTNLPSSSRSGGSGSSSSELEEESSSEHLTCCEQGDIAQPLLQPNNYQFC", "assay": "Kinome screen, CSF1R", "assay_type": "binding", "conditions": "screened at 1 μM", "description": "as §1, §2"}, "[2]": {"system": "IL-6, IL-2, and IFNγ signaling", "assay": "Cellular assays of Assays 3 to 6 (summary statement)", "assay_type": "cell-based", "conditions": "Homo sapiens, cellular assays described in Assays 3 to 6", "description": "(§3) The potency of the test compound for inhibition of interleukin-2 (IL-2)/anti-CD3 stimulated interferon gamma (IFNγ) was measured in human peripheral blood mononuclear cells (PBMCs) isolated from human whole blood (Stanford Blood Center). Because IL-2 signals through JAK, this assay provides a measure of JAK cellular potency.\nas §3, with “STAT5 phosphorylation” for “interferon gamma (IFNγ)”, “measured in CD4-positive (CD4+) T cells” for “measured”, “Center) using flow cytometry.” for “Center).”\nThe potency of the test compound for inhibition of interleukin-6 (IL-6) stimulated CCL2 (MCP-1) production was measured in human peripheral blood mononuclear cells (PBMCs) isolated from human whole blood (Stanford Blood Center). Because IL-6 signals through JAK, this assay provides a distal measure of JAK cellular potency.\nThe potency of the test compound for inhibition of interferon gamma (IFNγ) stimulated STAT1 phosphorylation was measured in CD14-positive (CD14+) monocytes derived from human whole blood (Stanford Blood Center) using flow cytometry. Because IFNγ signals through JAK, this assay provides a measure of JAK cellular potency."}, "SYK": {"molecular_target": "T5, SYK (Homo sapiens, UniProt P43405)", "T5 construct": "made in house; host or cells: T7 phage in E. coli (BL21-derived) or HEK-293", "assay": "Kinome screen, SYK", "assay_type": "binding", "conditions": "screened at 1 μM", "description": "as §1, §2"}, "ALK": {"molecular_target": "T6, ALK (Homo sapiens, UniProt Q9UM73)", "T6 construct": "made in house; host or cells: T7 phage in E. coli (BL21-derived) or HEK-293", "T6 sequence (Q9UM73 19-1620)": "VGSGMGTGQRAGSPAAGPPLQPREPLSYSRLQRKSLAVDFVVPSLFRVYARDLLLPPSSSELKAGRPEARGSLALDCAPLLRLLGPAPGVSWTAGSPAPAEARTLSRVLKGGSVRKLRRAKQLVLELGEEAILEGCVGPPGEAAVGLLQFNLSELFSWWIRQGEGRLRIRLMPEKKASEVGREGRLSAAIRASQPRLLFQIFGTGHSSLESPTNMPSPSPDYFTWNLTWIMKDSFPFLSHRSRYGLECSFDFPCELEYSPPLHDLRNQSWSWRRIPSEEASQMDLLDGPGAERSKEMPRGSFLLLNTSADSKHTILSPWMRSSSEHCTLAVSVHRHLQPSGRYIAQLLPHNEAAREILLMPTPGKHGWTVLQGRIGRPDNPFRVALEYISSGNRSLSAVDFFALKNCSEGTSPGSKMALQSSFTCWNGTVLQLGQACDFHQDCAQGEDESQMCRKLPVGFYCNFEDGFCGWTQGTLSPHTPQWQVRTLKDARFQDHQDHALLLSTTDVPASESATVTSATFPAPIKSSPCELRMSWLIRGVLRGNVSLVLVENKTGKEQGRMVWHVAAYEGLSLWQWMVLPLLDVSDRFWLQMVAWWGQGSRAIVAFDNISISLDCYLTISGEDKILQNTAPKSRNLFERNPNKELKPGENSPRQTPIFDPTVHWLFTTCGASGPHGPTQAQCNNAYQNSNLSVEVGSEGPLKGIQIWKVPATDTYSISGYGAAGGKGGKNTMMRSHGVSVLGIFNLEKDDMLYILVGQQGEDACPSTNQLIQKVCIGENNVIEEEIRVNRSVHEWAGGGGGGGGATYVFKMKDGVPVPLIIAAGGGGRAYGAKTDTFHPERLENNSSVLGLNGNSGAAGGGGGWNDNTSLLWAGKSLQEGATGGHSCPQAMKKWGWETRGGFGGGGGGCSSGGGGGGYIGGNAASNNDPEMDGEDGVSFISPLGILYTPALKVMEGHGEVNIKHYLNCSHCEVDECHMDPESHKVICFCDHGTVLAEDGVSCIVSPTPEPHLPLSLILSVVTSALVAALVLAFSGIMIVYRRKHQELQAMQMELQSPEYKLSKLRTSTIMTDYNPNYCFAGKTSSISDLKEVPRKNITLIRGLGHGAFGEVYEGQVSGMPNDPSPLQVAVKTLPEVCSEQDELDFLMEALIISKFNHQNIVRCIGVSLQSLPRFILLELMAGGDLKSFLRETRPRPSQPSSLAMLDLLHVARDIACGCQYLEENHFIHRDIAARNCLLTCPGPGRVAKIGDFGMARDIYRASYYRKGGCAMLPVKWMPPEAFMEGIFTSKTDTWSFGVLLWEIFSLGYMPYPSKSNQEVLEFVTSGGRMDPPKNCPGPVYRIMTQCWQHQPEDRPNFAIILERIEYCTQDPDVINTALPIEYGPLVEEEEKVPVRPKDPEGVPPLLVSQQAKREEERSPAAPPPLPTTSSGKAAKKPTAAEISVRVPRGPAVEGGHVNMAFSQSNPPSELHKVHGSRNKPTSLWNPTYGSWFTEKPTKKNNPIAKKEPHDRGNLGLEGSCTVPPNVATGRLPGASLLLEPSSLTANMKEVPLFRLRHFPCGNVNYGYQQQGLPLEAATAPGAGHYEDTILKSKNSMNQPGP", "assay": "Kinome screen, ALK", "assay_type": "binding", "conditions": "screened at 1 μM", "description": "as §1, §2"}}, "note": "pIC50: −log10 of the molar value. Like-named read-outs stand apart in the source and are kept apart here."}
{"molecule": "CCc1cc(O)c(F)cc1-c1cc(F)c2c(-c3nc4c([nH]3)CCN(C(=O)CN3CCOCC3)C4)n[nH]c2c1", "note": "[Compound 1, 1-(2-(6-(2-ethyl-5-fluoro-4-hydroxyphenyl)-4-fluoro-1H-indazol-3-yl)-1,4,6,7-tetrahydro-5H-imidazo[4,5-c]pyridin-5-yl)-2-morpholinoethan-1-one]", "values": [{"measurement": "inhibition at 1 µM", "setting": "KIT", "result": 87, "unit": "%"}, {"measurement": "Ki", "setting": "JAK1", "result": 0.1, "unit": "nM"}, {"measurement": "inhibition at 1 µM", "setting": "CDK7", "result": 74, "unit": "%"}, {"measurement": "CC15", "setting": "[1]", "result": 3160, "unit": "nM"}, {"measurement": "inhibition at 1 µM", "setting": "CSF1R", "result": 98, "unit": "%"}, {"measurement": "pIC50", "setting": "[2]; read-out: IC50 for inhibition of IL-6, IL-2, and IFNγ signaling", "result": "≥ 6.40"}, {"measurement": "IC50", "setting": "[2]; read-out: pIC50 for inhibition of IL-6, IL-2, and IFNγ signaling (converted)", "result": "≤ 398", "unit": "nM"}, {"measurement": "inhibition at 1 µM", "setting": "SYK", "result": 46, "unit": "%"}, {"measurement": "inhibition at 1 µM", "setting": "ALK", "result": 75, "unit": "%"}]}
